O=C1CCC(c2ccccc2)=NN1
solubility (mole fraction)
Settings	in DMSO	in ethanol	in ethyl acetate	in ethylene glycol	in isopropanol	in n-butanol	in propylene glycol	in sec-butanol	in transcutol	in water
293.2 K	0.637	0.00407	0.00878	0.0074	0.0031	0.00474	0.00654	0.00512	0.423	7.24e-07
298.2 K	0.647	0.00466	0.00994	0.00836	0.00378	0.0053	0.00732	0.00555	0.451	9.18e-07
303.2 K	0.658	0.00529	0.0111	0.00921	0.0046	0.00601	0.00846	0.00618	0.476	1.13e-06
308.2 K	0.668	0.00607	0.0128	0.0101	0.00555	0.0067	0.00951	0.00687	0.502	1.37e-06
313.2 K	0.677	0.00696	0.0145	0.0109	0.00651	0.00768	0.0103	0.00778	0.524	1.61e-06

Settings	solubility (mole fraction)
in PEG-400, 293.2 K	0.0585
in PEG-400, 298.2 K	0.0646
in PEG-400, 303.2 K	0.0709
in PEG-400, 308.2 K	0.078
in PEG-400, 313.2 K	0.0847

From BigSolDB 2.1
